# Legend:
# [1] = Stability on storage at room temperature, HPLC analysis of SAM-e concentration; type: physicochemical
# Description: (§1) SAM-e-1, 4-butane-disulphonate and chitosan salt of SAM-e 1, 4-butane-disulphonate were stored at room temperature, in a closed, clear glass vial at constant humidity. HPLC analysis done according to Bottligleri, T. (1990) Isocratic high performance liquid chromatographic analysis of S-adenosylmethionine and S-adenosylhomocysteine in animal tissues: the effect of exposure to nitrous oxide. Biomed Chromatogr, 4(6):239-41.
# Stability study-of polycation (chitosan) salt of SAM-e tosylate
# as §1, with “SAM-e tosylate” for “SAM-e-1, 4-butane-disulphonate”, “tosylate” for “1, 4-butane-disulphonate”
# [2] = oral; alcoholic liver cirrhosis; compared with a placebo treated group; cited from earlier work
# [3] = oral; short term trial; cited from earlier work
# [4] = oral; patients with intrahepatic cholestasis; cited from earlier work
# [5] = oral; patients with and without liver disease; cited from earlier work
# [6] = preliminary study; cited from earlier work
smiles,measurement,setting,value
C[S+](CC[C@H](N)C(=O)O)C[C@H]1O[C@@H](n2cnc3c(N)ncnc32)[C@H](O)[C@@H]1O.Cc1ccc(S(=O)(=O)[O-])cc1 (stereo partly drawn) [SAM-e tosylate],deteriorated by (over the period of time),"[1]; Example 11, text, room temperature storage Dec. 28, 1999 to Apr. 4, 2000",92.9%
same,"Analysis: Dec. 28, 1999 Concentration 0.5 mg/ml 1:125","[1]; Example 11, first analysis Dec. 28, 1999, 0.5 mg/ml, dilution 1:125, HPLC",3492 nmol/L
same,"Analysis: Apr. 4, 2000 Concentration 0.5 mg/ml 1:125","[1]; Example 11, second analysis Apr. 4, 2000, stored at room temperature, closed clear glass vial, constant humidity, 0.5 mg/ml, 1:125",247.9 nmol/L
"C[S+](CC[C@H](N)C(=O)[O-])C[C@H]1O[C@@H](n2cnc3c(N)ncnc32)[C@H](O)[C@@H]1O.O=S(=O)(O)CCCCS(=O)(=O)O (stereo partly drawn) [SAM-e-1,4-butane-disulphonate]",deteriorated by (over the period of time),"[1]; Example 10, text, room temperature storage May 11, 2000 to Aug. 22, 2000",43%
same,% Change,"[1]; Example 10, May 11, 2000 to Aug. 22, 2000, room temperature, closed clear glass vial, constant humidity",−43.9%
same,"Analysis: May 11, 2000 Concentration 1:500","[1]; Example 10, first analysis May 11, 2000, dilution 1:500, HPLC",1417.96 nmol/L
same,"Analysis: Aug. 22, 2000 Concentration 1:500","[1]; Example 10, second analysis Aug. 22, 2000, stored at room temperature, closed clear glass vial, constant humidity, dilution 1:500",794.41 nmol/L
"C[S+](CC[C@H](N)C(=O)[O-])C[C@H]1O[C@@H](n2cnc3c(N)ncnc32)[C@H](O)[C@@H]1O (stereo partly drawn) [SAM-e, S-adenosyl-1-methionine]",overall mortality and/or progression to liver transplant,[2],29% vs 12%
same,clinical effect in primary fibromyalgia,[3],significant improvement
same,pruritus and biochemical markers of cholestasis,[4],improvements in both the pruritus as well as the biochemical markers of cholestasis
same,liver glutathione levels,[5],increases in liver glutathione levels
same,cognitive effect in patients with Alzheimer's disease,[6],cognitive improvement

# Reference: patent US6635615B1, “Stable salts of S-adenosyl-l-methionine” (priority 1999, dated 2003)
